Data as given in patent publication US12134608B2, “Benzimidazole derivatives as dual histamine H1 and histamine H4 receptor ligands” (BIOPROJET, priority 2017, dated 2024).
Read-outs that look alike come from different tables or passages of the source.

What was measured:
hERG channel = hERG channel (Homo sapiens, UniProt Q12809); assay: hERG competition binding
Source text: Compounds that are antagonists or inverse agonists at the human H1 receptor are often found to bind to the hERG channel, giving rise to arrhythmia possibly leading to sudden cardiac arrest. This led to the withdrawal of several medicines from the clinics. This parameter has thus been evaluated for the compounds of the present application.
The discriminative recognition of hERG channel by the eutomer versus the distomer is shown in the table below where the reported values are the inhibition constant determined by competition binding: […]

human H4 receptor = human H4 receptor (Homo sapiens, UniProt Q9H3N8); assay: hH4 binding competition
Procedure: (§1) Activity at the human H1 receptor is determined by the inhibition of agonist-induced stimulation of radioactive GTP-gamma-S binding at recombinant receptors. […] Affinity for the human H4 receptor is determined by binding competition.

human H1 receptor = human H1 receptor (Homo sapiens, UniProt P35367); assay: hH1 GTPgS: inhibition of agonist-induced stimulation of radioactive GTP-gamma-S binding at recombinant receptors; type: biochemical
Procedure: as §1

[1] = Bioavailability / lung exposure after per os administration to mice; type: in vivo
[2] = Brain exposure: exposure over 8 hours in brain and plasma after per os administration to mice; type: in vivo; conditions: for Kp: mouse, brain/plasma, oral, examples of the present invention, read-out: ratio of the exposure in brain over the one in plasma
Procedure: Compounds that are acting as […] or inverse agonists on the histamine H1 receptor should not enter the brain. This would lead to unwanted side effects such as sedation and weight gain. The efficiency for entering into the brain may be assessed by administrating the compound per os to mice and measuring the exposure over 8 hours in the brain and in the plasma. The result may be expressed by the ratio of the exposure in brain over the one in plasma.

[3] = allergic conjunctivitis; Nakano Y et al. Eur J Pharmacol 2009; cited from earlier work
[4] = eutomers of the invention and their distomers
[5] = comparative compounds of WO 2012/041860, eutomer and distomer

Chain of human H1 receptor (P35367 whole entry): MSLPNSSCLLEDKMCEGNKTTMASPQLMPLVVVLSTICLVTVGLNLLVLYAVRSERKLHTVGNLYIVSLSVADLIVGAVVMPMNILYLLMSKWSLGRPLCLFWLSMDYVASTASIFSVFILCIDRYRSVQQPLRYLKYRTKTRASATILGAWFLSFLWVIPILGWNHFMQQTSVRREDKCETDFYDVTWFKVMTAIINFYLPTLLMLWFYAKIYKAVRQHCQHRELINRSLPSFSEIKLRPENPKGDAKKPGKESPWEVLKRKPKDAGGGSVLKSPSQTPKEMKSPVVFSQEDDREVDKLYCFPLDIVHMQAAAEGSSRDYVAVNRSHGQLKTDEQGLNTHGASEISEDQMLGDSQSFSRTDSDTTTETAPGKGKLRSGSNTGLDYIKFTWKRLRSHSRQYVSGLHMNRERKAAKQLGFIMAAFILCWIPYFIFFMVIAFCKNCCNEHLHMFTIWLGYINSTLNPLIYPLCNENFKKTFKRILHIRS
Chain of hERG channel (Q12809 whole entry): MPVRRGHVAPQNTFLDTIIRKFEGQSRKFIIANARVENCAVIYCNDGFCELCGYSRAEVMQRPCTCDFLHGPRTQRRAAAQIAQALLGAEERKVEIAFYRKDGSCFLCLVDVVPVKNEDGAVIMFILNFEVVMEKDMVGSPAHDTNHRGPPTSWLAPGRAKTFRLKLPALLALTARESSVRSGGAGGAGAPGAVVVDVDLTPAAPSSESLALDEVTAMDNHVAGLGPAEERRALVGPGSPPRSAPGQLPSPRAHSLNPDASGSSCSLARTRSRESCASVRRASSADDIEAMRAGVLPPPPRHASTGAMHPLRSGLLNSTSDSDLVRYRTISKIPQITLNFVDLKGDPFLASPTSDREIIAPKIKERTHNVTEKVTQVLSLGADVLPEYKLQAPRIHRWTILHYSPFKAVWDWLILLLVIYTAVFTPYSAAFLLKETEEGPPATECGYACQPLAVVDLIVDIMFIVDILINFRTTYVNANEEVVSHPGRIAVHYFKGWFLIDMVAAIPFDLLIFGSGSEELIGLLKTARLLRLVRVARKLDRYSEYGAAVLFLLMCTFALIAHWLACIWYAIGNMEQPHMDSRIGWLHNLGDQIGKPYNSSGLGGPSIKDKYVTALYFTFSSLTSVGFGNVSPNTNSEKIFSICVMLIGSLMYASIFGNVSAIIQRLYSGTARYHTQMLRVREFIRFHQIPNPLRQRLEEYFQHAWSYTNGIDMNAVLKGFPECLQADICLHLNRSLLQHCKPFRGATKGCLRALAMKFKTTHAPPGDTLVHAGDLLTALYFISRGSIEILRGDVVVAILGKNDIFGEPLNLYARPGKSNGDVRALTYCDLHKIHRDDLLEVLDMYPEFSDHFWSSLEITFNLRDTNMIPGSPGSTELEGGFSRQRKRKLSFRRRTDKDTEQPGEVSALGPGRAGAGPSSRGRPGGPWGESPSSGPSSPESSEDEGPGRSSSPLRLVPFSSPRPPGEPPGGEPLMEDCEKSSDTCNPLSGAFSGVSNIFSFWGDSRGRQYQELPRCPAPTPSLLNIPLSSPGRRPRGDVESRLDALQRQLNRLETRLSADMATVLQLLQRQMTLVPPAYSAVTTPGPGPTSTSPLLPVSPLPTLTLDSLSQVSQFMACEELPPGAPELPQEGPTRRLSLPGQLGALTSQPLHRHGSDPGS

Row | Molecule | Ki (human H4 receptor) [nM] | Kb (human H1 receptor) [nM] | Ki (hERG channel; [4]) [nM] | Ki (hERG channel; [5]) [nM] | further results
1 | Cc1ccc(C(OC2CCN(C)CC2)c2nc3ccccc3[nH]2)c(F)c1 (stereo not shown) [drawing 24 Eutomer, reference compound] |  |  |  | 503 | 
2 | C[C@@H]1CN([C@H]2CC[C@](C#N)(c3ccc(F)cc3)CC2)CC[C@]1(C(=O)O)c1ccccc1 [levocabastine] |  |  |  |  | eye scratching behavior [3]: inhibited eye scratching behavior
3 | CN1CCC(OC(c2nc3ccccc3[nH]2)c2ccc(Cl)c(F)c2O)CC1 (stereo not shown) [drawing 28 Eutomer, reference compound] |  |  |  | 6680 | 
4 | Cc1ccc(C(OC2CCN(C)CC2)c2nc3ccccc3[nH]2)c(F)c1 (stereo not shown) [drawing 24 Distomer, reference compound] |  |  |  | 363 | 
5 | Cc1ccc(C(OC2CCN(C)CC2)c2nc3ccc(F)cc3[nH]2)c(O)c1F (single isomer, unassigned) [drawing 27 Distomer, reference compound] |  |  |  | 799 | 
6 | Cc1ccc(C(OC2CCN(C)CC2)c2nc3ccccc3[nH]2)c(O)c1F (stereo not shown) [drawing 25 Distomer, reference compound] |  |  |  | 5700 | 
7 | Cc1ccc(C(OC2CCN(C)CC2)c2nc3ccccc3[nH]2)c(O)c1F (stereo not shown) [drawing 25 Eutomer, reference compound] |  |  |  | 3100 | 
8 | CN1CCC(OC(c2nc3ccccc3[nH]2)c2ccc(F)c(F)c2O)CC1 (stereo not shown) [drawing 26 Eutomer, reference compound] |  |  |  | 18000 | 
9 | CN1CCC(OC(c2nc3ccccc3[nH]2)c2ccc(Cl)c(F)c2O)CC1 (stereo not shown) [drawing 28 Distomer, reference compound] |  |  |  | 8430 | 
10 | CN1CCC(OC(c2nc3ccccc3[nH]2)c2ccc(F)c(F)c2O)CC1 (stereo not shown) [drawing 26 Distomer, reference compound] |  |  |  | 32000 | 
11 | Cc1ccc(C(OC2CCN(C)CC2)c2nc3ccc(F)cc3[nH]2)c(O)c1F (single isomer, unassigned) [drawing 27 Eutomer, reference compound] |  |  |  | 220 | 
12 | CN1CCC(OC(c2nc3ccccc3[nH]2)c2cccc(F)c2O)CC1 (single isomer, unassigned) [Example 1] |  |  |  |  | Kp ([2]; 10 mg/kg): 0.2; lung AUC ([1]; 10 mg/kg): 20486 ng·h/g
13 | (S)-2-[(1H-benzimidazol-2-yl)(1-methylpiperidin-4-yloxy)methyl]-6-fluorophenol [Example 1] |  |  |  |  | ratio of the exposure in brain over the one in plasma ([2]; 10 mg/kg, comparative compounds, example numbers of WO2012/041860): 13

The next lines start with results.

Row | Ki (human H4 receptor) [nM] | Kb (human H1 receptor) [nM] | Molecule | Ki (hERG channel; [4]) [nM] | Ki (hERG channel; [5]) [nM] | further results
14 | 0.915 | 1.65 | CN1CCC(OC(c2nc3cc(F)ccc3[nH]2)c2ccccc2O)CC1 (single isomer, unassigned) [Example 5] | 3210 |  | lung AUC ([1]; 1 mg/kg): 1264 ng·h/g
15 | 0.61 | 1.43 | CN1CCC(OC(c2nc3ccc(Cl)c(F)c3[nH]2)c2ccccc2O)CC1 (single isomer, unassigned) [Example 3] | 2580 |  | Kp ([2]; 1 mg/kg): 0; lung AUC ([1]; 1 mg/kg): 10037 ng·h/g
16 | 5.02 | 2.18 | CN1CCC(O[C@H](c2nc3ccccc3[nH]2)c2cccc(F)c2O)CC1 [Example 1, (S)-2-[(1H-benzimidazol-2-yl)(1-methylpiperidin-4-yloxy)methyl]-6-fluorophenol] | 11400 |  | 
17 | 73.1 | 132 | Cc1c(Cl)ccc2nc(C(OC3CCN(C)CC3)c3ccccc3O)[nH]c12 (single isomer, unassigned) [Example 7 Distomer A] | 586 |  | 
18 | 2.87 | 0.165 | Cc1cccc2nc(C(OC3CCN(C)CC3)c3ccccc3O)[nH]c12 (single isomer, unassigned) [Example 4] | 21300 |  | Kp ([2]; 1 mg/kg): 0.3; lung AUC ([1]; 1 mg/kg): 1144 ng·h/g
19 | 0.727 | 1.87 | Cc1c(Cl)ccc2nc(C(OC3CCN(C)CC3)c3ccccc3O)[nH]c12 (single isomer, unassigned) [Example 7] | 3010 |  | lung AUC ([1]; 1 mg/kg): 1169 ng·h/g
20 | 491 | 133 | Cc1cccc2nc(C(OC3CCN(C)CC3)c3ccccc3O)[nH]c12 (single isomer, unassigned) [Example 4 Distomer A] | 2780 |  | 
21 | 3.42 | 1.25 | CN1CCC(OC(c2nc3cccc(Cl)c3[nH]2)c2ccccc2O)CC1 (single isomer, unassigned) [Example 6] | 12500 |  | Kp ([2]; 1 mg/kg): 0; lung AUC ([1]; 1 mg/kg): 6316 ng·h/g
22 | 42 | 156 | CN1CCC(OC(c2nc3ccc(Cl)c(F)c3[nH]2)c2ccccc2O)CC1 (single isomer, unassigned) [Example 3 Distomer A] | 783 |  | 
23 | 249 | 97.5 | CN1CCC(OC(c2nc3cc(F)ccc3[nH]2)c2ccccc2O)CC1 (single isomer, unassigned) [Example 5 Distomer A] | 646 |  | 
24 | 788 | 225 | CN1CCC(OC(c2nc3ccccc3[nH]2)c2cccc(F)c2O)CC1 (single isomer, unassigned) [Example 1 Distomer A] | 4210 |  | 
25 | 474 | 598 | CN1CCC(OC(c2nc3cccc(Cl)c3[nH]2)c2ccccc2O)CC1 (single isomer, unassigned) [Example 6 Distomer A] | 1490 |  | 
